Values after ≈ are worked out from the molar mass of the structure shown.
Key:
Format in all cases: functional
[1] = system: Staphylococcus aureus; test: Antibacterial activity against methicillin-resistant Staphylococcus aureus assessed as bacterial growth inhibition incubated for 24 hrs by CLSI based two serial dilution assay
[2] = system: Enterococcus faecalis; test: Antibacterial activity against Enterococcus faecalis assessed as bacterial growth inhibition incubated for 24 hrs by CLSI based two serial dilution assay
[3] = system: Staphylococcus aureus; test: Antibacterial activity against Staphylococcus aureus assessed as bacterial growth inhibition incubated for 24 hrs by CLSI based two serial dilution assay
[4] = system: Staphylococcus aureus; test: Antibacterial activity against Staphylococcus aureus 25923 assessed as bacterial growth inhibition incubated for 24 hrs by CLSI based two serial dilution assay
[5] = system: Staphylococcus aureus; test: Antibacterial activity against Staphylococcus aureus 29213 assessed as bacterial growth inhibition incubated for 24 hrs by CLSI based two serial dilution assay
[6] = system: Klebsiella pneumoniae; test: Antibacterial activity against Klebsiella pneumoniae assessed as bacterial growth inhibition incubated for 24 hrs by CLSI based two serial dilution assay
[7] = system: Escherichia coli; test: Antibacterial activity against Escherichia coli assessed as bacterial growth inhibition incubated for 24 hrs by CLSI based two serial dilution assay
[8] = system: Escherichia coli; test: Antibacterial activity against Escherichia coli 25922 assessed as bacterial growth inhibition incubated for 24 hrs by CLSI based two serial dilution assay
[9] = system: Pseudomonas aeruginosa; test: Antibacterial activity against Pseudomonas aeruginosa assessed as bacterial growth inhibition incubated for 24 hrs by CLSI based two serial dilution assay
[10] = system: Pseudomonas aeruginosa; test: Antibacterial activity against Pseudomonas aeruginosa ATCC 27853 assessed as bacterial growth inhibition incubated for 24 hrs by CLSI based two serial dilution assay
[11] = system: Acinetobacter baumannii; test: Antibacterial activity against Acinetobacter baumannii assessed as bacterial growth inhibition incubated for 24 hrs by CLSI based two serial dilution assay
[12] = system: Candida albicans; test: Antifungal activity against Candida albicans assessed as inhibition of fungal growth incubated for 24 hrs by CLSI based two serial dilution assay
[13] = system: Candida albicans; test: Antifungal activity against Candida albicans ATCC 90023 assessed as inhibition of fungal growth incubated for 24 hrs by CLSI based two serial dilution assay
[14] = system: Candida tropicalis; test: Antifungal activity against Candida tropicalis assessed as inhibition of fungal growth incubated for 24 hrs by CLSI based two serial dilution assay
[15] = system: Candida parapsilosis; test: Antifungal activity against Candida parapsilosis ATCC 22019 assessed as inhibition of fungal growth incubated for 24 hrs by CLSI based two serial dilution assay; details: Lodderomyces parapsilosis
[16] = system: Aspergillus fumigatus; test: Antifungal activity against Aspergillus fumigatus assessed as inhibition of fungal growth incubated for 24 hrs by CLSI based two serial dilution assay

Row | Structure (SMILES) | MIC [1] | MIC [2] | MIC [3] | MIC [4] | MIC [5] | MIC [6] | MIC [7] | MIC [8] | MIC [9] | MIC [10] | MIC [11] | MIC [12] | MIC [13] | MIC [14] | MIC [15] | MIC [16]
1 | CCCCN1C(=O)/C(=N\Nc2nccs2)c2ccc(Cl)cc21 | 0.5 µM (≈ 0.167 µg/mL) | 2 µM (≈ 0.67 µg/mL) | 1 µM (≈ 0.335 µg/mL) | 0.5 µM (≈ 0.167 µg/mL) | 4 µM (≈ 1.34 µg/mL) | 0.5 µM (≈ 0.167 µg/mL) | 1 µM (≈ 0.335 µg/mL) | 4 µM (≈ 1.34 µg/mL) | 0.5 µM (≈ 0.167 µg/mL) | 4 µM (≈ 1.34 µg/mL) | 0.5 µM (≈ 0.167 µg/mL) | 0.5 µM (≈ 0.167 µg/mL) | 2 µM (≈ 0.67 µg/mL) | 1 µM (≈ 0.335 µg/mL) | 0.5 µM (≈ 0.167 µg/mL) | 1 µM (≈ 0.335 µg/mL)
2 | CCCCN1C(=O)/C(=N\Nc2nccs2)c2c(Cl)cc(Cl)cc21 | 1 µM (≈ 0.369 µg/mL) | 4 µM (≈ 1.48 µg/mL) | 2 µM (≈ 0.739 µg/mL) | 1 µM (≈ 0.369 µg/mL) | 2 µM (≈ 0.739 µg/mL) | 1 µM (≈ 0.369 µg/mL) | 32 µM (≈ 11.8 µg/mL) | 1 µM (≈ 0.369 µg/mL) | 2 µM (≈ 0.739 µg/mL) | 512 µM (≈ 189 µg/mL) | 512 µM (≈ 189 µg/mL) | 0.5 µM (≈ 0.185 µg/mL) | 2 µM (≈ 0.739 µg/mL) | 1 µM (≈ 0.369 µg/mL) | 256 µM (≈ 94.5 µg/mL) | 128 µM (≈ 47.3 µg/mL)
3 | CCCCN1C(=O)/C(=N\Nc2nccs2)c2cccc(Cl)c21 | 0.5 µM (≈ 0.167 µg/mL) | 1 µM (≈ 0.335 µg/mL) | 64 µM (≈ 21.4 µg/mL) | 0.5 µM (≈ 0.167 µg/mL) | 64 µM (≈ 21.4 µg/mL) | 0.5 µM (≈ 0.167 µg/mL) | 1 µM (≈ 0.335 µg/mL) | 0.5 µM (≈ 0.167 µg/mL) | 1 µM (≈ 0.335 µg/mL) | 0.5 µM (≈ 0.167 µg/mL) | 0.5 µM (≈ 0.167 µg/mL) | 0.5 µM (≈ 0.167 µg/mL) | 1 µM (≈ 0.335 µg/mL) | 4 µM (≈ 1.34 µg/mL) | 32 µM (≈ 10.7 µg/mL) | 128 µM (≈ 42.9 µg/mL)
4 | CCN1C(=O)/C(=N\Nc2nccs2)c2ccccc21 | 32 µM (≈ 8.71 µg/mL) | 32 µM (≈ 8.71 µg/mL) | 64 µM (≈ 17.4 µg/mL) | 64 µM (≈ 17.4 µg/mL) | 16 µM (≈ 4.36 µg/mL) | 64 µM (≈ 17.4 µg/mL) | 32 µM (≈ 8.71 µg/mL) | 64 µM (≈ 17.4 µg/mL) | 2 µM (≈ 0.545 µg/mL) | 512 µM (≈ 139 µg/mL) | 512 µM (≈ 139 µg/mL) | 64 µM (≈ 17.4 µg/mL) | 128 µM (≈ 34.9 µg/mL) | 64 µM (≈ 17.4 µg/mL) | 64 µM (≈ 17.4 µg/mL) | 32 µM (≈ 8.71 µg/mL)
5 | CCCCN1C(=O)/C(=N\Nc2nccs2)c2cccc(F)c21 | 4 µM (≈ 1.27 µg/mL) | 2 µM (≈ 0.637 µg/mL) | 16 µM (≈ 5.09 µg/mL) | 1 µM (≈ 0.318 µg/mL) | 16 µM (≈ 5.09 µg/mL) | 1 µM (≈ 0.318 µg/mL) | 4 µM (≈ 1.27 µg/mL) | 1 µM (≈ 0.318 µg/mL) | 1 µM (≈ 0.318 µg/mL) | 1 µM (≈ 0.318 µg/mL) | 0.5 µM (≈ 0.159 µg/mL) | 32 µM (≈ 10.2 µg/mL) | 4 µM (≈ 1.27 µg/mL) | 1 µM (≈ 0.318 µg/mL) | 4 µM (≈ 1.27 µg/mL) | 256 µM (≈ 81.5 µg/mL)
6 | C=CCN1C(=O)/C(=N\Nc2nccs2)c2ccccc21 | 512 µM (≈ 146 µg/mL) | 64 µM (≈ 18.2 µg/mL) | 64 µM (≈ 18.2 µg/mL) | 128 µM (≈ 36.4 µg/mL) | 128 µM (≈ 36.4 µg/mL) | 256 µM (≈ 72.8 µg/mL) | 64 µM (≈ 18.2 µg/mL) | 512 µM (≈ 146 µg/mL) | 512 µM (≈ 146 µg/mL) | 16 µM (≈ 4.55 µg/mL) | 512 µM (≈ 146 µg/mL) | 256 µM (≈ 72.8 µg/mL) | 512 µM (≈ 146 µg/mL) | 32 µM (≈ 9.1 µg/mL) | 128 µM (≈ 36.4 µg/mL) | 4 µM (≈ 1.14 µg/mL)
7 | CCCCCCCCCCCCN1C(=O)/C(=N\Nc2nccs2)c2ccccc21 | 128 µM (≈ 52.8 µg/mL) | 4 µM (≈ 1.65 µg/mL) | 32 µM (≈ 13.2 µg/mL) | 4 µM (≈ 1.65 µg/mL) | 4 µM (≈ 1.65 µg/mL) | 32 µM (≈ 13.2 µg/mL) | 64 µM (≈ 26.4 µg/mL) | 32 µM (≈ 13.2 µg/mL) | 16 µM (≈ 6.6 µg/mL) | 16 µM (≈ 6.6 µg/mL) | 64 µM (≈ 26.4 µg/mL) | 32 µM (≈ 13.2 µg/mL) | 128 µM (≈ 52.8 µg/mL) | 16 µM (≈ 6.6 µg/mL) | 64 µM (≈ 26.4 µg/mL) | 32 µM (≈ 13.2 µg/mL)
8 | CCCCN1C(=O)/C(=N\Nc2nccs2)c2c(Cl)cccc21 | 256 µM (≈ 85.7 µg/mL) | 128 µM (≈ 42.9 µg/mL) | 512 µM (≈ 171 µg/mL) | 512 µM (≈ 171 µg/mL) | 1 µM (≈ 0.335 µg/mL) | 1 µM (≈ 0.335 µg/mL) | 256 µM (≈ 85.7 µg/mL) | 512 µM (≈ 171 µg/mL) | 1 µM (≈ 0.335 µg/mL) | 128 µM (≈ 42.9 µg/mL) | 256 µM (≈ 85.7 µg/mL) | 256 µM (≈ 85.7 µg/mL) | 512 µM (≈ 171 µg/mL) | 128 µM (≈ 42.9 µg/mL) | 16 µM (≈ 5.36 µg/mL) | 256 µM (≈ 85.7 µg/mL)
9 | CCCCN1C(=O)/C(=N\Nc2nccs2)c2cc(Cl)ccc21 | 1 µM (≈ 0.335 µg/mL) | 32 µM (≈ 10.7 µg/mL) | 1 µM (≈ 0.335 µg/mL) | 1 µM (≈ 0.335 µg/mL) | 1 µM (≈ 0.335 µg/mL) | 0.5 µM (≈ 0.167 µg/mL) | 1 µM (≈ 0.335 µg/mL) | 0.5 µM (≈ 0.167 µg/mL) | 0.5 µM (≈ 0.167 µg/mL) | 0.5 µM (≈ 0.167 µg/mL) | 1 µM (≈ 0.335 µg/mL) | 0.5 µM (≈ 0.167 µg/mL) | 2 µM (≈ 0.67 µg/mL) | 16 µM (≈ 5.36 µg/mL) | 0.5 µM (≈ 0.167 µg/mL) | 4 µM (≈ 1.34 µg/mL)
10 | CCCCCN1C(=O)/C(=N\Nc2nccs2)c2ccccc21 | 4 µM (≈ 1.26 µg/mL) | 4 µM (≈ 1.26 µg/mL) | 4 µM (≈ 1.26 µg/mL) | 16 µM (≈ 5.03 µg/mL) | 4 µM (≈ 1.26 µg/mL) | 4 µM (≈ 1.26 µg/mL) | 16 µM (≈ 5.03 µg/mL) | 4 µM (≈ 1.26 µg/mL) | 2 µM (≈ 0.629 µg/mL) | 16 µM (≈ 5.03 µg/mL) | 4 µM (≈ 1.26 µg/mL) | 4 µM (≈ 1.26 µg/mL) | 4 µM (≈ 1.26 µg/mL) | 16 µM (≈ 5.03 µg/mL) | 4 µM (≈ 1.26 µg/mL) | 4 µM (≈ 1.26 µg/mL)
11 | CCCCN1C(=O)/C(=N\Nc2nccs2)c2ccc(Br)cc21 | 1 µM (≈ 0.379 µg/mL) | 4 µM (≈ 1.52 µg/mL) | 1 µM (≈ 0.379 µg/mL) | 0.5 µM (≈ 0.19 µg/mL) | 4 µM (≈ 1.52 µg/mL) | 0.5 µM (≈ 0.19 µg/mL) | 0.5 µM (≈ 0.19 µg/mL) | 16 µM (≈ 6.07 µg/mL) | 1 µM (≈ 0.379 µg/mL) | 0.5 µM (≈ 0.19 µg/mL) | 0.5 µM (≈ 0.19 µg/mL) | 0.5 µM (≈ 0.19 µg/mL) | 1 µM (≈ 0.379 µg/mL) | 1 µM (≈ 0.379 µg/mL) | 0.5 µM (≈ 0.19 µg/mL) | 0.5 µM (≈ 0.19 µg/mL)
12 | CCCCN1C(=O)/C(=N\Nc2nccs2)c2cc([N+](=O)[O-])ccc21 | 512 µM (≈ 177 µg/mL) | 512 µM (≈ 177 µg/mL) | 512 µM (≈ 177 µg/mL) | 512 µM (≈ 177 µg/mL) | 512 µM (≈ 177 µg/mL) | 512 µM (≈ 177 µg/mL) | 512 µM (≈ 177 µg/mL) | 512 µM (≈ 177 µg/mL) | 512 µM (≈ 177 µg/mL) | 512 µM (≈ 177 µg/mL) | 0.5 µM (≈ 0.173 µg/mL) | 512 µM (≈ 177 µg/mL) | 512 µM (≈ 177 µg/mL) | 512 µM (≈ 177 µg/mL) | 512 µM (≈ 177 µg/mL) | 512 µM (≈ 177 µg/mL)
13 | O=C1/C(=N\Nc2nccs2)c2ccccc2N1Cc1ccc(Cl)cc1Cl | 128 µM (≈ 51.6 µg/mL) | 64 µM (≈ 25.8 µg/mL) | 4 µM (≈ 1.61 µg/mL) | 4 µM (≈ 1.61 µg/mL) | 2 µM (≈ 0.807 µg/mL) | 128 µM (≈ 51.6 µg/mL) | 64 µM (≈ 25.8 µg/mL) | 128 µM (≈ 51.6 µg/mL) | 64 µM (≈ 25.8 µg/mL) | 64 µM (≈ 25.8 µg/mL) | 64 µM (≈ 25.8 µg/mL) | 32 µM (≈ 12.9 µg/mL) | 16 µM (≈ 6.45 µg/mL) | 64 µM (≈ 25.8 µg/mL) | 32 µM (≈ 12.9 µg/mL) | 16 µM (≈ 6.45 µg/mL)

Source: ChEMBL document CHEMBL5370535, “Thiazolyl hydrazineylidenyl indolones as unique potential multitargeting broad-spectrum antimicrobial agents” (Eur J Med Chem, 2023)
